Experimental findings from patent US10988478B1, “Pyrazolo[1,5a]pyrimidine derivatives as IRAK4 modulators” (Genentech, Inc., priority 2015, dated 2021) are described below.

Sequence of human IRAK4 (Q9NWZ3 whole entry, the tested form may be a part): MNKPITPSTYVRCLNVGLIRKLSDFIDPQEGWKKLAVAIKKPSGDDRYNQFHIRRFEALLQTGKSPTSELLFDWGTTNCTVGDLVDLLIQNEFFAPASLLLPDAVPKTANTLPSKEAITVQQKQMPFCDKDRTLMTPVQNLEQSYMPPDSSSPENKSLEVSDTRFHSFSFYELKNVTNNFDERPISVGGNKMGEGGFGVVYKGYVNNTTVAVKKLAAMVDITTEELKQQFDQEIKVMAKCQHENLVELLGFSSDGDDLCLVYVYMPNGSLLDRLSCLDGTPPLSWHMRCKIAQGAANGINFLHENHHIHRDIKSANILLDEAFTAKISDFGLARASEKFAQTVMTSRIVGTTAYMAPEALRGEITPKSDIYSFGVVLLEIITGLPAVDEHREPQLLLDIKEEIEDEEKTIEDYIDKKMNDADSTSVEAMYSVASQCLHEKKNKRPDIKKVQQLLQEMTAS

The experiment has as its target human IRAK4 (Homo sapiens (Human), UniProt Q9NWZ3). As to the kind of experiment: IRAK4 kinase inhibition, Transcreener fluorescence polarization ADP assay. The format is biochemical. Conditions: recombinant full-length His6-IRAK4; 125 uM ATP; 90 min; Ki computed using ATP Km 642 uM. The protocol: Compounds were assayed for inhibition of human IRAK4 and IRAK1 catalytic activity using recombinant enzyme produced from insect cells. Full-length IRAK4 protein, carrying an N-terminal His6-Tag, was obtained from Life Technologies (Carlsbad, Calif., USA). The IRAK1 construct was produced internally and was comprised of IRAK1 residues Arg194 to Ser712, preceded by an NH2-terminal His6 tag and the coding sequence for glutathione-S-transferase.
By Ki is commonly meant a dissociation constant, usually derived from enzyme kinetics or from competition with a known ligand. With `CC(C)(O)[C@H](F)CN1Cc2cc(NC(=O)c3cnn4cc(Br)cnc34)c(N3CCOCC3)cc2C1=O` [Example 269, 6-bromo-N-[2-[(2R)-2-fluoro-3-hydroxy-3-methyl-butyl]-6-morpholino-1-oxo-isoindolin-5-yl]pyrazolo[1,5-a]pyrimidine-3-carboxamide], the Ki turned out to be 1.5 nM.

`CC(C)(O)C(F)(F)CN1Cc2cc(NC(=O)c3cnn4cccnc34)c(N3CCOCC3)cc2C1=O` [Example 270, N-[2-(2,2-Difluoro-3-hydroxy-3-methyl-butyl)-6-morpholino-1-oxo-isoindolin-5-yl]pyrazolo[1,5-a]pyrimidine-3-carboxamide]: the Ki was determined as 9.7 nM.

Turning to `CC(C)(O)[C@H](F)CN1Cc2cc(NC(=O)c3cnn4cc(Cl)cnc34)c(N3CCOCC3)cc2C1=O` [Example 271, 6-Chloro-N-[2-[(2R)-2-fluoro-3-hydroxy-3-methyl-butyl]-6-morpholino-1-oxo-isoindolin-5-yl]pyrazolo[1,5-a]pyrimidine-3-carboxamide], the Ki is 1.7 nM.

As to `CC(C)N1Cc2cc(NC(=O)c3cnn4cccnc34)c(N3CCN(CC(N)=O)CC3)cc2C1=O` [Example 272, N-[6-[4-(2-Amino-2-oxo-ethyl)piperazin-1-yl]-2-isopropyl-1-oxo-isoindolin-5-yl]pyrazolo[1,5-a]pyrimidine-3-carboxamide], the Ki worked out at 4 nM.

Turning to `O=C(Nc1cc2c(cc1N1CCOCC1)C(=O)N(CC(F)(F)CO)C2)c1cnn2cccnc12` [Example 273, N-[2-(2,2-Difluoro-3-hydroxy-propyl)-6-morpholino-1-oxo-isoindolin-5-yl]pyrazolo[1,5-a]pyrimidine-3-carboxamide], the Ki was found to be 37 nM.

In the case of `CC(C)(O)[C@H](F)CN1Cc2cc(NC(=O)c3cnn4cccnc34)c(N3CCC(C#N)CC3)cc2C1=O` [Example 274, (R)-N-(6-(4-cyanopiperidin-1-yl)-2-(2-fluoro-3-hydroxy-3-methylbutyl)-1-oxoisoindolin-5-yl)pyrazolo[1,5-a]pyrimidine-3-carboxamide], the Ki stood at 1.4 nM.

Consider `CC(C)(O)CCN1Cc2cc(NC(=O)c3cnn4cccnc34)c(N3CCN(CC(F)F)CC3)cc2C1=O` [Example 279, N-[6-[4-(2,2-Difluoroethyl)piperazin-1-yl]-2-(3-hydroxy-3-methyl-butyl)-1-oxo-isoindolin-5-yl]pyrazolo[1,5-a]pyrimidine-3-carboxamide], for which the inhibitory constant (Ki) is 1.8 nM.

For the compound `CC(C)(O)CCN1Cc2cc(NC(=O)c3cnn4cccnc34)c(N3CCN(CC(N)=O)CC3)cc2C1=O` [Example 280, N-[6-[4-(2-Amino-2-oxo-ethyl)piperazin-1-yl]-2-(3-hydroxy-3-methyl-butyl)-1-oxo-isoindolin-5-yl]pyrazolo[1,5-a]pyrimidine-3-carboxamide], the Ki was found to be 2 nM.

In the case of `CN1CCC(N2Cc3cc(NC(=O)c4cnn5cccnc45)c(N4CCN(CC(N)=O)CC4)cc3C2=O)CC1` [Example 281, N-[6-[4-(2-Amino-2-oxo-ethyl)piperazin-1-yl]-2-(1-methyl-4-piperidyl)-1-oxo-isoindolin-5-yl]pyrazolo[1,5-a]pyrimidine-3-carboxamide], the inhibition constant Ki was determined as 2.4 nM.

For the compound `Cc1cnc2c(C(=O)Nc3cc4c(cc3N3CCN(CC(F)F)CC3)C(=O)N(C[C@@H](F)C(C)(C)O)C4)cnn2c1` [Example 284, N-[6-[4-(2,2-Difluoroethyl)piperazin-1-yl]-2-[(2R)-2-fluoro-3-hydroxy-3-methyl-butyl]-1-oxo-isoindolin-5-yl]-6-methyl-pyrazolo[1,5-a]pyrimidine-3-carboxamide], the Ki was 2 nM.

In the case of `CC(C)(O)[C@H](F)CN1Cc2cc(NC(=O)c3cnn4cc(Cl)cnc34)c(N3CCN(CC(F)F)CC3)cc2C1=O` [Example 285, 6-Chloro-N-[6-[4-(2,2-difluoroethyl)piperazin-1-yl]-2-[(2R)-2-fluoro-3-hydroxy-3-methyl-butyl]-1-oxo-isoindolin-5-yl]pyrazolo[1,5-a]pyrimidine-3-carboxamide], the Ki stood at 2 nM.

In the case of `CC(C)(O)[C@H](F)CN1Cc2cc(NC(=O)c3cnn4cc(C(N)=O)cnc34)c(N3CCOCC3)cc2C1=O` [Example 286, N3-[2-[(2R)-2-Fluoro-3-hydroxy-3-methyl-butyl]-6-morpholino-1-oxo-isoindolin-5-yl]pyrazolo[1,5-a]pyrimidine-3,6-dicarboxamide], the Ki is 2 nM.

For the compound `CC(C)N1Cc2cc(NC(=O)c3cnn4cccnc34)c(N3CCOCC3)cc2S1(=O)=O` [Example 287, N-(2-Isopropyl-6-morpholino-1,1-dioxo-3H-1,2-benzothiazol-5-yl)pyrazolo[1,5-a] pyrimidine-3-carboxamide], the Ki came to 26 nM.

On to `CC(C)(O)CN1Cc2cc(NC(=O)c3cnn4cccnc34)c(N3CCOCC3)cc2S1(=O)=O` [Example 288, N-[2-(2-Hydroxy-2-methyl-propyl)-6-morpholino-1,1-dioxo-3H-1,2-benzothiazol-5-yl]pyrazolo[1,5-a]pyrimidine-3-carboxamide], for which the Ki worked out at 63 nM.

`CC(C)(O)[C@H](F)CN1Cc2cc(NC(=O)c3cnn4cccnc34)c(N3CCOCC3)cc2S1(=O)=O` [Example 289, N-[2-[(2R)-2-Fluoro-3-hydroxy-3-methyl-butyl]-6-morpholino-1,1-dioxo-3H-1,2-benzothiazol-5-yl]pyrazolo[1,5-a]pyrimidine-3-carboxamide]: the Ki came to 8 nM.

For the compound `CCOP(=O)(OCC)OCC1(C)Cc2cc(NC(=O)c3cnn4cccnc34)c(N3CCOCC3)cc2O1` (centres unmarked) [Example 290, Diethyl ((2-methyl-6-morpholino-5-(pyrazolo[1,5-a]pyrimidine-3-carboxamido)-2,3-dihydrobenzofuran-2-yl)methyl) phosphate], the Ki was 180 nM.

Regarding `CC1(C)Cc2cc(NC(=O)c3cnn4cccnc34)c(OC[C@H]3CCCN3)cc2O1` [Example 291, (R)—N-(2,2-Dimethyl-6-(pyrrolidin-2-ylmethoxy)-2,3-dihydrobenzofuran-5-yl)pyrazolo[1,5-a]pyrimidine-3-carboxamide], the Ki came to 380 nM.

As to `CC1(C)Cc2cc(NC(=O)c3cnn4cccnc34)c(OC[C@H]3CCCN3CC(F)F)cc2O1` [Example 292, (R)—N-(6-((1-(2,2-Difluoroethyl)pyrrolidin-2-yl)methoxy)-2,2-dimethyl-2,3-dihydrobenzofuran-5-yl)pyrazolo[1,5-a]pyrimidine-3-carboxamide], the Ki came to 760 nM.

Consider `CC1(C)Cc2cc(NC(=O)c3cnn4cccnc34)c(OC[C@@H]3C[C@@H]4C[C@@H]4N3CC(F)F)cc2O1` [Example 293, N-(6-(((1S,3S,5S)-2-(2,2-difluoroethyl)-2-azabicyclo[3.1.0]hexan-3-yl)methoxy)-2,2-dimethyl-2,3-dihydrobenzofuran-5-yl)pyrazolo[1,5-a]pyrimidine-3-carboxamide], for which the Ki turned out to be 690 nM.

Take `CC1(C)Cc2cc(NC(=O)c3cnn4cccnc34)c(OC[C@@H]3[C@H]4CN(CC(F)F)C[C@@H]34)cc2O1` [Example 294, N-(6-(((1R,5S,6R)-3-(2,2-difluoroethyl)-3-azabicyclo[3.1.0]hexan-6-yl)methoxy)-2,2-dimethyl-2,3-dihydrobenzofuran-5-yl)pyrazolo[1,5-a]pyrimidine-3-carboxamide]: the inhibition constant Ki was 14 nM.

As for `CC1(C)Cc2cc(NC(=O)c3cnn4cccnc34)c(OC[C@H]3[C@@H]4CNC[C@@H]43)cc2O1` [Example 295, N-(6-(((1R,5S,6R)-3-azabicyclo[3.1.0]hexan-6-yl)methoxy)-2,2-dimethyl-2,3-dihydrobenzofuran-5-yl)pyrazolo[1,5-a]pyrimidine-3-carboxamide], the Ki was 8.2 nM.

With `CC1(C)Cc2cc(NC(=O)c3cnn4cccnc34)c(OCC3CCOC3)cc2O1` (stereo not drawn) [Example 296, N-(2,2-Dimethyl-6-((tetrahydrofuran-3-yl)methoxy)-2,3-dihydrobenzofuran-5-yl)pyrazolo[1,5-α]pyrimidine-3-carboxamide], the inhibition constant Ki worked out at 18 nM.

As to `CC1(C)Cc2cc(NC(=O)c3cnn4cccnc34)c(OCc3cccnc3)cc2O1` [Example 297, N-(2,2-Dimethyl-6-(pyridin-3-ylmethoxy)-2,3-dihydrobenzofuran-5-yl)pyrazolo[1,5-α]pyrimidine-3-carboxamide], the Ki stood at 23 nM.

As to `CC1(C)Cc2cc(NC(=O)c3cnn4cccnc34)c(OCC3CC3)cc2O1` [Example 298, N-(6-(Cyclopropylmethoxy)-2,2-dimethyl-2,3-dihydrobenzofuran-5-yl)pyrazolo[1,5-α]pyrimidine-3-carboxamide], the Ki stood at 7 nM.

`CC1(COc2cc3c(cc2NC(=O)c2cnn4cccnc24)CC(C)(C)O3)COC1` [Example 299, N-(2,2-Dimethyl-6-((3-methyloxetan-3-yl)methoxy)-2,3-dihydrobenzofuran-5-yl)pyrazolo[1,5-α]pyrimidine-3-carboxamide]: the Ki is 31 nM.

`Cn1cc(COc2cc3c(cc2NC(=O)c2cnn4cccnc24)CC(C)(C)O3)cn1` [Example 300, N-(2,2-Dimethyl-6-((1-methyl-1H-pyrazol-4-yl)methoxy)-2,3-dihydrobenzofuran-5-yl)pyrazolo[1,5-α]pyrimidine-3-carboxamide]: the Ki was 7 nM.

With `CC1(C)Cc2cc(NC(=O)c3cnn4cccnc34)c(OCc3ccncc3)cc2O1` [Example 301, N-(2,2-Dimethyl-6-(pyridin-4-ylmethoxy)-2,3-dihydrobenzofuran-5-yl)pyrazolo[1,5-α]pyrimidine-3-carboxamide], the Ki amounted to 17 nM.

Take `CC1(C)Cc2cc(NC(=O)c3cnn4cccnc34)c(OCC(F)F)cc2O1` [Example 302, N-(6-(2,2-Difluoroethoxy)-2,2-dimethyl-2,3-dihydrobenzofuran-5-yl)pyrazolo[1,5-α]pyrimidine-3-carboxamide]: the Ki came to 11 nM.

As to `CN1CCCC(Oc2cc3c(cc2NC(=O)c2cnn4cccnc24)CC(C)(C)O3)C1` (stereo not drawn) [Example 304, N-(2,2-Dimethyl-6-((1-methylpiperidin-3-yl)oxy)-2,3-dihydrobenzofuran-5-yl)pyrazolo[1,5-α]pyrimidine-3-carboxamide], the Ki stood at 720 nM.
